Measured values reported in patent US20230390214A1, “ADHESIVE PATCH” (TOYO INK SC HOLDINGS CO., LTD., priority 2020, published 2023).

Assay: Solubility of the drug in levulinic acid at 35° C. (visual observation)
Type: physicochemical
Details: in 1 mL of levulinic acid at a liquid temperature of 35° C.
Method: The adhesive layer includes a drug. A drug that can be dissolved in levulinic acid is preferable. For example, it is preferable that 0.1 g or more of the drug can be dissolved in 1 mL of levulinic acid at a liquid temperature of 35° C.
Specifically, the solubility of the drug is determined as follows. One mL of levulinic acid is put into a test tube and kept at 35° C. to obtain liquid levulinic acid. To the liquid levulinic acid, 0.1 g of the drug is added to obtain a mixed liquid. While keeping the mixed liquid at 35° C., the mixed liquid in the test tube is vibrated for 10 minutes using an ultrasonic cleaner (e.g., a glasses cleaner). After removing the test tube from the ultrasonic cleaner and leaving it in an environment of 35° C. for 4 hours, the mixed liquid in the test tube is visually observed to check for the presence of residues or precipitates of the drug. In a case where no drug residues or precipitates are observed in the mixed liquid, it is determined that 0.1 g or more of the drug can be dissolved in 1 mL of levulinic acid at a liquid temperature of 35° C. Furthermore, in a case where drug residues or precipitates are observed in the mixed liquid, it is determined that 0.1 g or more of the drug cannot be dissolved in 1 mL of levulinic acid at a liquid temperature of 35° C.

Amount of drug that can be dissolved in 1 mL of levulinic acid | Compound
≥ 0.1 g | CCCN(CCc1cccs1)[C@H]1CCc2c(O)cccc2C1 [rotigotine]
≥ 0.1 g | N=C(N)NC(=O)Cc1c(Cl)cccc1Cl [guanfacine]
≥ 0.1 g | CCN1CCN(c2cc(-c3ccc(F)cc3)c3c(n2)CCCCCC3)CC1 [blonanserin]
